Measured values as given in patent US20110028507A1, “PYRIDINE DERIVATIVES AND METHODS OF USE THEREOF” (CRYSTALGENOMICS, INC., priority 2007, published 2011).

Experiments:
HIF-PH2 (EGLN1) = biological target: T1, HIF-PH2 (EGLN1) (Homo sapiens, UniProt Q9GZT9); experiment: HIF-PH2 (PHD2) assay (fluorescence polarization method); assay type: biochemical; settings: 200 nM HIF PH2 enzyme, 50 nM peptide substrate, 30° C. one hour; read-out: IC50 (HIF PH2 inhibition activity)
T1 construct: made in house; host or cells: E. coli
Method: HIF-PH2 (EGLN1) was expressed from E. coli cells, and purified using two process: an Ni-affinity chromatography column and a size-exclusion chromatography column.
To evaluate activities of an HIF PH2 inhibitor, HIF PH2 enzyme that was first overexpressed by genetic recombination and then purified was used to perform an enzyme reaction. […] At this time, 2 mM ascorbic acid and 5 mM ketoglutarate with 100 μM FeCl2 or without FeCl2, were used together with crude enzyme. A concentration of HIF PH2 inhibitor to be tested was treated and reacted at 30° C. for one hour. After the reaction, the resulting reaction product was boiled at 95° C. for one minute to suppress the enzyme reaction.
To determine whether prolyl hydroxylation occurs in the substrate as the secondary reaction, 500 nM GST-VBC (GST-VHL-Elongin B-Elongin C) protein was added to a reaction buffer (50 mM Tris-Cl (pH8.0), 120 mM NaCl, 0.5% Nonidet P40), and a GST-VBC binding reaction was carried out at room temperature for 30 minutes.
A fluorescence polarization value of a sample that is not treated with the HIF PH2 inhibitor was used as 100% control, and the activities of the HIF PH2 inhibitor were measured as percentage of the remaining HIF PH2 enzyme activity in samples treated with a concentration of the HIF PH2 inhibitor to be tested.

EPO = experiment: Human EPO immunoassay (ELISA of Hep3B culture media); assay type: cell-based; settings: Hep3B cells, compound at 100 μM, 24-hour incubation; for EPO (mIU/ml): culture media ELISA; for fold induction at 100 µM: Homo sapiens, read-out: Fold Induction over control (EPO Induction)
Method: Human cells derived from hepatocarcinoma (Hep3B) tissue (see, e.g., American Type Culture Collection, Manassas Va.) were grown at 37° C., 20% O2, 5% CO2 in DMEM (GIBCO)+10% FBS, 4.5 g/L D-Glucose; L-Glutamate and 110 mg/L sodium pyruvate. Ninety-six well plates were seeded with 4×10^4 HEP3B cells/well. The media was removed and replaced with DMEM+10% FBS. Compounds were added to wells at concentrations between 1 μM-100 μM for a 24-hour incubation. Cell culture media was harvested and EPO concentration was determined using a Human Erythropoietin Quantikine IVD ELISA Kit (R&D Systems®, Minneapolis, Minn.) following the manufacturer's instructions for the benchtop assay.

T1 sequence (Q9GZT9 whole entry, species assumed): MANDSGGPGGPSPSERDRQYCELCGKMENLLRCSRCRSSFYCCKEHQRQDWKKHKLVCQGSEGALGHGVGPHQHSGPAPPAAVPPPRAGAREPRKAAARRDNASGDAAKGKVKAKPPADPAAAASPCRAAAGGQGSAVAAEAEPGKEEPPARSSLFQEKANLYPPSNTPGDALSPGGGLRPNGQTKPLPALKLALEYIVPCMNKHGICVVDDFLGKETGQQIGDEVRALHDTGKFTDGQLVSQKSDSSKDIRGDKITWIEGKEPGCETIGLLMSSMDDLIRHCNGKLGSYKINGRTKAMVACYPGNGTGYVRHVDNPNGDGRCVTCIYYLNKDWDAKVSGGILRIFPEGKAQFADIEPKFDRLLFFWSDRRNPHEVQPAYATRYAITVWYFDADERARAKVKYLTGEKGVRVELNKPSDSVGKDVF

Row | SMILES | IC50 (HIF-PH2 (EGLN1)) [µM] | EPO (mIU/ml) (EPO) | fold induction at 100 µM (EPO)
1 | O=C(NCc1cccnc1)c1nc(Br)c2c(sc3ccccc32)c1O [1-Bromo-4-hydroxy-benzo[4,5]thieno[3,2-c]pyridine-3-carboxylic acid (pyridin-3-ylmethyl)-amide] | 26 to 100 |  | 
2 | C[C@H](NC(=O)c1ncc2ccoc2c1O)C(=O)O [(S)-2-[(7-Hydroxy-furo[3,2-c]pyridine-6-carbonyl)-amino]-propionic acid] | > 201 |  | 
3 | COC(=O)CNC(=O)c1nc(Cl)c2c(ccn2S(=O)(=O)c2ccccc2)c1O [[(1-Benzenesulfonyl-7-chloro-4-hydroxy-1H-pyrrolo[2,3-c]pyridine-5-carbonyl)-amino]-acetic acid methyl ester] | < 25 |  | 
4 | O=C(O)CNC(=O)c1nc(Cl)c2c(ccn2S(=O)(=O)c2ccccc2)c1O [[(1-Benzenesulfonyl-7-chloro-4-hydroxy-1H-pyrrolo[2,3-c]pyridine-5-carbonyl)-amino]-acetic acid] | < 25 | I (I = 0-20 mIU/ml) | < 20
5 | O=C(O)CNC(=O)c1nc(Br)c2c(sc3ccccc32)c1F [[(1-Bromo-4-fluoro-benzo[4,5]thieno[3,2-c]pyridine-3-carbonyl)-amino]-acetic acid] | < 25 |  | 
6 | O=C(O)CNC(=O)c1nc(Cl)c2c(sc3ccc(S(=O)(=O)Cc4ccccc4)cc32)c1O [[(1-Chloro-4-hydroxy-8-phenylmethanesulfonyl-benzo[4,5]thieno[3,2-c]pyridine-3-carbonyl)-amino]-acetic acid] | 26 to 100 |  | 
7 | Nc1c(C(=O)NCC(=O)O)nc(Br)c2c1sc1ccccc12 [[(4-Amino-1-bromo-benzo[4,5]thieno[3,2-c]pyridine-3-carbonyl)-amino]-acetic acid] | > 201 |  | 
8 | O=C(O)CN(O)C(=O)c1ncc2c(sc3ccccc32)c1Cl [[(4-Chloro-benzo[4,5]thieno[3,2-c]pyridine-3-carbonyl)-hydroxy-amino]-acetic acid] | > 201 |  | 
9 | Cc1nc(C(=O)NCC(=O)O)c(O)c2sc3ccccc3c12 [[(4-Hydroxy-1-methyl-benzo[4,5]thieno[3,2-c]pyridine-3-carbonyl)-amino]-acetic acid] |  | J (J = 21-40 mIU/ml) | > 71
10 | O=C(O)CNC(=O)c1ncc2c(cnn2-c2ccccn2)c1O [[(4-Hydroxy-1-pyridin-2-yl-1H-pyrazolo[3,4-c]pyridine-5-carbonyl)-amino]-acetic acid] | < 25 | I (I = 0-20 mIU/ml) | < 20
11 | O=C(O)CNC(=O)c1ncc2c(oc3ccccc32)c1O [[(4-Hydroxy-benzo[4,5]furo[3,2-c]pyridine-3-carbonyl)-amino]-acetic acid] |  | I (I = 0-20 mIU/ml) | < 20
12 | O=C(O)CNC(=O)c1ncc2c(sc3ccccc32)c1O [[(4-Hydroxy-benzo[4,5]thieno[3,2-c]pyridine-3-carbonyl)-amino]-acetic acid] |  | I (I = 0-20 mIU/ml) | < 20
13 | O=C(O)CNC(=O)c1nc(Cl)c2[nH]ccc2c1O [[(7-Chloro-4-hydroxy-1H-pyrrolo[2,3-c]pyridine-5-carbonyl)-amino]-acetic acid] | > 201 |  | 
14 | Cc1nc(C(=O)NCC(=O)O)c(O)c2sc3cc(F)ccc3c12 [[(7-Fluoro-4-hydroxy-1-methyl-benzo[4,5]thieno[3,2-c]pyridine-3-carbonyl)-amino]-acetic acid] | < 25 | L (L = >61 mIU/ml) | 21 to 50
15 | O=C(O)CNC(=O)c1ncc2c(-c3ccccc3)coc2c1O [[(7-Hydroxy-3-phenyl-furo[3,2-c]pyridine-6-carbonyl)-amino]-acetic acid] | 101 to 200 |  | 
16 | O=C(O)CNC(=O)c1ncc2ccoc2c1O [[(7-Hydroxy-furo[3,2-c]pyridine-6-carbonyl)-amino]-acetic acid] | > 201 |  | 
17 | O=C(O)CNC(=O)c1nc(Cl)c2c(sc3ccc(NS(=O)(=O)c4ccccc4)cc32)c1O [[(8-Benzenesulfonylamino-1-chloro-4-hydroxy-benzo[4,5]thieno[3,2-c]pyridine-3-carbonyl)-amino]-acetic acid] | < 25 | I (I = 0-20 mIU/ml) | < 20
18 | O=C(O)CN(O)C(=O)c1ncc2c(sc3ccccc32)c1O [[Hydroxy-(4-hydroxy-benzo[4,5]thieno[3,2-c]pyridine-3-carbonyl)-amino]-acetic acid] | 101 to 200 |  | 

Now from value to molecule, other results behind:

Row | IC50 (HIF-PH2 (EGLN1)) [µM] | SMILES | EPO (mIU/ml) (EPO) | fold induction at 100 µM (EPO)
19 | < 25 | O=C(O)CNC(=O)c1nc(Cl)c2c(sc3cc(O)ccc32)c1O [[(1-Chloro-4,7-dihydroxy-benzo[4,5]thieno[3,2-c]pyridine-3-carbonyl)-amino]-acetic acid] | I (I = 0-20 mIU/ml) | < 20
20 | < 25 | O=C(O)CNC(=O)c1nc(Cl)c2c(sc3ccc(O)cc32)c1O [[(1-Chloro-4,8-dihydroxy-benzo[4,5]thieno[3,2-c]pyridine-3-carbonyl)-amino]-acetic acid] | I (I = 0-20 mIU/ml) | < 20
21 | < 25 | CC(C)Oc1ccc2c(c1)sc1c(O)c(C(=O)NCC(=O)O)nc(Cl)c12 [[(1-Chloro-4-hydroxy-7-isopropoxy-benzo[4,5]thieno[3,2-c]pyridine-3-carbonyl)-amino]-acetic acid] | L (L = >61 mIU/ml) | 21 to 50
22 | < 25 | COc1ccc2c(c1)sc1c(O)c(C(=O)NCC(=O)O)nc(Cl)c12 [[(1-Chloro-4-hydroxy-7-methoxy-benzo[4,5]thieno[3,2-c]pyridine-3-carbonyl)-amino]-acetic acid] | I (I = 0-20 mIU/ml) | 21 to 50
23 | < 25 | O=C(O)CNC(=O)c1nc(Cl)c2c(sc3ccc(C(F)(F)F)cc32)c1O [[(1-Chloro-4-hydroxy-8-trifluoromethyl-benzo[4,5]thieno[3,2-c]pyridine-3-carbonyl)-amino]-acetic acid] | J (J = 21-40 mIU/ml) | 21 to 50
24 | < 25 | CCN(CC)c1ccc2sc3c(O)c(C(=O)NCC(=O)O)nc(Cl)c3c2c1 [[(1-Chloro-8-diethylamino-4-hydroxy-benzo[4,5]thieno[3,2-c]pyridine-3-carbonyl)-amino]-acetic acid] | J (J = 21-40 mIU/ml) | 21 to 50
25 | 26 to 100 | CCS(=O)(=O)c1ccc2sc3c(O)c(C(=O)NCC(=O)O)nc(Cl)c3c2c1 [[(1-Chloro-8-ethanesulfonyl-4-hydroxy-benzo[4,5]thieno[3,2-c]pyridine-3-carbonyl)-amino]-acetic acid] |  | 
26 | < 25 | CCNc1ccc2sc3c(O)c(C(=O)NCC(=O)O)nc(Cl)c3c2c1 [[(1-Chloro-8-ethylamino-4-hydroxy-benzo[4,5]thieno[3,2-c]pyridine-3-carbonyl)-amino]-acetic acid] | K (K = 41-60 mIU/ml) | 51 to 70
27 | 101 to 200 | CC(C)Oc1c(C(=O)NCC(=O)O)nc(Cl)c2c1sc1ccc(O)cc12 [[(1-Chloro-8-hydroxy-4-isopropoxy-benzo[4,5]thieno[3,2-c]pyridine-3-carbonyl)-amino]-acetic acid] |  | 
28 | 101 to 200 | COc1c(C(=O)NCC(=O)O)nc(Cl)c2c1sc1ccc(O)cc12 [[(1-Chloro-8-hydroxy-4-methoxy-benzo[4,5]thieno[3,2-c]pyridine-3-carbonyl)-amino]-acetic acid] |  | 
29 | < 25 | O=C(O)CNC(=O)c1nc(Cl)c2c(sc3ccc([S+]([O-])c4ccccc4)cc32)c1O (centres unmarked) [[(8-Benzenesulfinyl-1-chloro-4-hydroxy-benzo[4,5]thieno[3,2-c]pyridine-3-carbonyl)-amino]-acetic acid] |  | 
30 | < 25 | O=C(O)CNC(=O)c1nc(Cl)c2c(sc3ccc(S(=O)(=O)c4ccccc4)cc32)c1O [[(8-Benzenesulfonyl-1-chloro-4-hydroxy-benzo[4,5]thieno[3,2-c]pyridine-3-carbonyl)-amino]-acetic acid] |  | 
31 | < 25 | O=C(O)CNC(=O)c1nc(Cl)c2c(sc3ccc(NCc4ccccc4)cc32)c1O [[(8-Benzylamino-1-chloro-4-hydroxy-benzo[4,5]thieno[3,2-c]pyridine-3-carbonyl)-amino]-acetic acid] |  | 
